Reference: ChEMBL document CHEMBL1121997, “2-beta-D-Ribofuranosylthiazole-4-carboxamide, a novel potential antitumor agent for lung tumors and metastases” (1982)

What was measured:
Format in all cases: functional
Mus musculus [1] = test: Effect of compound on life span of mice inoculated intravenously with lewis lung carcinoma at the dose of 0.78 mg/kg in experiment 4; details: route intravenous
Mus musculus [2] = test: Number of survivors out of 10 mice after 60 days infected with lewis lung carcinoma at the dose of 400 mg/kg in experiment 3
Mus musculus [3] = test: Number of survivors out of 10 mice after 60 days infected with lewis lung carcinoma at the dose of 25 mg/kg in experiment 1
Mus musculus [4] = test: Average body weight in grams on day 5 minus average body weight on day 1 at the dose of 25 mg/kg in experiment 2
Mus musculus [5] = test: Number of survivors out of 10 mice after 60 days infected with lewis lung carcinoma at the dose of 400 mg/kg in experiment 2
Mus musculus [6] = test: Average body weight in grams on day 5 minus average body weight on day 1 at the dose of 25 mg/kg in experiment 4
Mus musculus [7] = test: Number of survivors out of 10 mice after 60 days infected with lewis lung carcinoma at the dose of 400 mg/kg in experiment 1
Mus musculus [8] = test: Average body weight in grams on day 5 minus average body weight on day 1 at the dose of 1.56 mg/kg in experiment 4
Mus musculus [9] = test: Effect of compound on life span of mice inoculated intravenously with lewis lung carcinoma at the dose of 50 mg/kg in experiment 3; details: route intravenous
Mus musculus [10] = test: Number of survivors out of 10 mice after 60 days infected with lewis lung carcinoma at the dose of 50 mg/kg in experiment 3
Mus musculus [11] = test: Number of survivors out of 10 mice after 60 days infected with lewis lung carcinoma at the dose of 1.56 mg/kg in experiment 4
Mus musculus [12] = test: Average body weight in grams on day 5 minus average body weight on day 1 at the dose of 50 mg/kg in experiment 1
Mus musculus [13] = test: Effect of compound on life span of mice inoculated intravenously with lewis lung carcinoma at the dose of 800 mg/kg in experiment 2; details: route intravenous
Mus musculus [14] = test: Number of survivors out of 10 mice after 60 days infected with lewis lung carcinoma at the dose of 12.5 mg/kg in experiment 4
Mus musculus [15] = test: Average body weight in grams on day 5 minus average body weight on day 1 at the dose of 400 mg/kg in experiment 1
Mus musculus [16] = test: Average body weight in grams on day 5 minus average body weight on day 1 at the dose of 800 mg/kg in experiment 2
Mus musculus [17] = test: Effect of compound on life span of mice inoculated intravenously with lewis lung carcinoma at the dose of 100 mg/kg in experiment 2; details: route intravenous
Mus musculus [18] = test: Number of survivors out of 10 mice after 60 days infected with lewis lung carcinoma at the dose of 100 mg/kg in experiment 1
Mus musculus [19] = test: Effect of compound on life span of mice inoculated intravenously with lewis lung carcinoma at the dose of 100 mg/kg in experiment 1; details: route intravenous
Mus musculus [20] = test: Number of survivors out of 10 mice after 60 days infected with lewis lung carcinoma at the dose of 100 mg/kg in experiment 2
Mus musculus [21] = test: Average body weight in grams on day 5 minus average body weight on day 1 at the dose of 6.25 mg/kg in experiment 4
Mus musculus [22] = test: Average body weight in grams on day 5 minus average body weight on day 1 at the dose of 100 mg/kg in experiment 1
Mus musculus [23] = test: Effect of compound on life span of mice inoculated intravenously with lewis lung carcinoma at the dose of 6.25 mg/kg in experiment 4; details: route intravenous
Mus musculus [24] = test: Average body weight in grams on day 5 minus average body weight on day 1 at the dose of 800 mg/kg in experiment 3
Mus musculus [25] = test: Average body weight in grams on day 5 minus average body weight on day 1 at the dose of 400 mg/kg in experiment 3
Mus musculus [26] = test: Number of survivors out of 10 mice after 60 days infected with lewis lung carcinoma at the dose of 800 mg/kg in experiment 1
Mus musculus [27] = test: Number of survivors out of 10 mice after 60 days infected with lewis lung carcinoma at the dose of 25 mg/kg in experiment 2
Mus musculus [28] = test: Number of survivors out of 10 mice after 60 days infected with lewis lung carcinoma at the dose of 200 mg/kg in experiment 3
Mus musculus [29] = test: Average body weight in grams on day 5 minus average body weight on day 1 at the dose of 50 mg/kg in experiment 2
Mus musculus [30] = test: Average body weight in grams on day 5 minus average body weight on day 1 at the dose of 200 mg/kg in experiment 2
Mus musculus [31] = test: Number of survivors out of 10 mice after 60 days infected with lewis lung carcinoma at the dose of 200 mg/kg in experiment 1
Mus musculus [32] = test: Average body weight in grams on day 5 minus average body weight on day 1 at the dose of 50 mg/kg in experiment 3
Mus musculus [33] = test: Effect of compound on life span of mice inoculated intravenously with lewis lung carcinoma at the dose of 800 mg/kg in experiment 3; details: route intravenous
Mus musculus [34] = test: Effect of compound on life span of mice inoculated intravenously with lewis lung carcinoma at the dose of 25 mg/kg in experiment 3; details: route intravenous
Mus musculus [35] = test: Number of survivors out of 10 mice after 60 days infected with lewis lung carcinoma at the dose of 200 mg/kg in experiment 2
Mus musculus [36] = test: Number of survivors out of 10 mice after 60 days infected with lewis lung carcinoma at the dose of 3.12 mg/kg in experiment 4
Mus musculus [37] = test: Average body weight in grams on day 5 minus average body weight on day 1 at the dose of 3.12 mg/kg in experiment 4
Mus musculus [38] = test: Number of survivors out of 10 mice after 60 days infected with lewis lung carcinoma at the dose of 25 mg/kg in experiment 3
Mus musculus [39] = test: Number of survivors out of 10 mice after 60 days infected with lewis lung carcinoma at the dose of 50 mg/kg in experiment 2
Mus musculus [40] = test: Average body weight in grams on day 5 minus average body weight on day 1 at the dose of 25 mg/kg in experiment 3
Mus musculus [41] = test: Effect of compound on life span of mice inoculated intravenously with lewis lung carcinoma at the dose of 25 mg/kg in experiment 4; details: route intravenous
Mus musculus [42] = test: Average body weight in grams on day 5 minus average body weight on day 1 at the dose of 100 mg/kg in experiment 3
Mus musculus [43] = test: Number of survivors out of 10 mice after 60 days infected with lewis lung carcinoma at the dose of 6.25 mg/kg in experiment 4
Mus musculus [44] = test: Effect of compound on life span of mice inoculated intravenously with lewis lung carcinoma at the dose of 400 mg/kg in experiment 3; details: route intravenous
Mus musculus [45] = test: Effect of compound on life span of mice inoculated intravenously with lewis lung carcinoma at the dose of 400 mg/kg in experiment 1; details: route intravenous
Mus musculus [46] = test: Number of survivors out of 10 mice after 60 days infected with lewis lung carcinoma at the dose of 100 mg/kg in experiment 3
Mus musculus [47] = test: Average body weight in grams on day 5 minus average body weight on day 1 at the dose of 0.78 mg/kg in experiment 4
Mus musculus [48] = test: Effect of compound on life span of mice inoculated intravenously with lewis lung carcinoma at the dose of 50 mg/kg in experiment 2; details: route intravenous
Mus musculus [49] = test: Number of survivors out of 10 mice after 60 days infected with lewis lung carcinoma at the dose of 0.78 mg/kg in experiment 4
Mus musculus [50] = test: Effect of compound on life span of mice inoculated intravenously with lewis lung carcinoma at the dose of 800 mg/kg in experiment 1; details: route intravenous
Mus musculus [51] = test: Average body weight in grams on day 5 minus average body weight on day 1 at the dose of 100 mg/kg in experiment 2
Mus musculus [52] = test: Number of survivors out of 10 mice after 60 days infected with lewis lung carcinoma at the dose of 800 mg/kg in experiment 3
Mus musculus [53] = test: Effect of compound on life span of mice inoculated intravenously with lewis lung carcinoma at the dose of 12.5 mg/kg in experiment 4; details: route intravenous
Mus musculus [54] = test: Effect of compound on life span of mice inoculated intravenously with lewis lung carcinoma at the dose of 200 mg/kg in experiment 3; details: route intravenous
Mus musculus [55] = test: Average body weight in grams on day 5 minus average body weight on day 1 at the dose of 400 mg/kg in experiment 2
Mus musculus [56] = test: Number of survivors out of 10 mice after 60 days infected with lewis lung carcinoma at the dose of 800 mg/kg in experiment 2
Mus musculus [57] = test: Effect of compound on life span of mice inoculated intravenously with lewis lung carcinoma at the dose of 3.12 mg/kg in experiment 4; details: route intravenous
Mus musculus [58] = test: Effect of compound on life span of mice inoculated intravenously with lewis lung carcinoma at the dose of 1.56 mg/kg in experiment 4; details: route intravenous
Mus musculus [59] = test: Average body weight in grams on day 5 minus average body weight on day 1 at the dose of 800 mg/kg in experiment 1
Mus musculus [60] = test: Average body weight in grams on day 5 minus average body weight on day 1 at the dose of 200 mg/kg in experiment 3
Mus musculus [61] = test: Number of survivors out of 10 mice after 60 days infected with lewis lung carcinoma at the dose of 50 mg/kg in experiment 1
Mus musculus [62] = test: Average body weight in grams on day 5 minus average body weight on day 1 at the dose of 25 mg/kg in experiment 1
Mus musculus [63] = test: Number of survivors out of 10 mice after 60 days infected with lewis lung carcinoma at the dose of 25 mg/kg in experiment 4
Mus musculus [64] = test: Average body weight in grams on day 5 minus average body weight on day 1 at the dose of 12.5 mg/kg in experiment 4
Mus musculus [65] = test: Average body weight in grams on day 5 minus average body weight on day 1 at the dose of 200 mg/kg in experiment 1

## NC(=O)c1csc([C@@H]2O[C@H](CO)[C@@H](O)[C@H]2O)n1 [TIAZOFURIN]
Mus musculus [1]
  Median life span: 20 days
Mus musculus [2]
  Survivors: 6
Mus musculus [3]
  Survivors: 10
Mus musculus [4]
  Weight change: 1 g
Mus musculus [5]
  Survivors: 10
Mus musculus [6]
  Weight change: 1.5 g
Mus musculus [7]
  Survivors: 7
Mus musculus [8]
  Weight change: 1.7 g
Mus musculus [9]
  Median life span: 55 days
Mus musculus [10]
  Survivors: 9
Mus musculus [11]
  Survivors: 0
Mus musculus [12]
  Weight change: 2.2 g
Mus musculus [13]
  Median life span: 8.5 days
Mus musculus [14]
  Survivors: 7
Mus musculus [15]
  Weight change: 1.2 g
Mus musculus [16]
  Weight change: -2.1 g
Mus musculus [17]
  Median life span: 46 days
Mus musculus [18]
  Survivors: 9
Mus musculus [19]
  Median life span: 17 days
Mus musculus [20]
  Survivors: 9
Mus musculus [21]
  Weight change: 2.3 g
Mus musculus [22]
  Weight change: 1.3 g
Mus musculus [23]
  Median life span: 25.3 days
Mus musculus [24]
  Weight change: -0.8 g
Mus musculus [25]
  Weight change: 0.5 g
Mus musculus [26]
  Survivors: 6
Mus musculus [27]
  Survivors: 10
Mus musculus [28]
  Survivors: 8
Mus musculus [29]
  Weight change: 1.6 g
Mus musculus [30]
  Weight change: 0.7 g
Mus musculus [31]
  Survivors: 10
Mus musculus [32]
  Weight change: 1.2 g
Mus musculus [33]
  Median life span: 11.3 days
Mus musculus [34]
  Median life span: 47 days
Mus musculus [35]
  Survivors: 10
Mus musculus [36]
  Survivors: 0
Mus musculus [37]
  Weight change: 1.8 g
Mus musculus [38]
  Survivors: 7
Mus musculus [39]
  Survivors: 9
Mus musculus [40]
  Weight change: 1.1 g
Mus musculus [41]
  Median life span: 7 days
Mus musculus [42]
  Weight change: 0.9 g
Mus musculus [43]
  Survivors: 0
Mus musculus [44]
  Median life span: 20 days
Mus musculus [45]
  Median life span: 9.5 days
Mus musculus [46]
  Survivors: 10
Mus musculus [47]
  Weight change: 2 g
Mus musculus [48]
  Median life span: 47 days
Mus musculus [49]
  Survivors: 0
Mus musculus [50]
  Median life span: 11.3 days
Mus musculus [51]
  Weight change: 1.3 g
Mus musculus [52]
  Survivors: 0
Mus musculus [53]
  Median life span: 39.5 days
Mus musculus [54]
  Median life span: 16 days
Mus musculus [55]
  Weight change: 0.4 g
Mus musculus [56]
  Survivors: 1
Mus musculus [57]
  Median life span: 22.8 days
Mus musculus [58]
  Median life span: 23 days
Mus musculus [59]
  Weight change: 1.3 g
Mus musculus [60]
  Weight change: 0.7 g
Mus musculus [61]
  Survivors: 10
Mus musculus [62]
  Weight change: 1.2 g
Mus musculus [63]
  Survivors: 9
Mus musculus [64]
  Weight change: 1.9 g
Mus musculus [65]
  Weight change: 1.3 g
